Measured values: ChEMBL document CHEMBL5518196, “Discovery of potent thiazolidin-4-one sulfone derivatives for inhibition of proliferation of osteosarcoma in vitro and in vivo” (Eur J Med Chem, 2024)

System: HOS-TE85
Test: Antiproliferative activity against human MNNG/HOS cells assessed as inhibition of cell growth incubated for 72 hrs by CCK8 assay
Assay type: functional, cell-based
Settings: HOS-TE85, 72 h

In the case of `O=C(NCCCCc1ccccc1)c1cccc(C2N(c3ccccc3)C(=O)CS2(=O)=O)c1` (configuration not stated), the IC50 is reported as 150 nM.

Work on `COc1cccnc1N1C(=O)CS(=O)(=O)C1c1cccc(C(=O)NCCCCc2ccccc2)c1` (configuration not stated) yielded an IC50 of 16 nM.

Compound `O=C(NCCCCc1ccccc1)c1cccc(C2N(C3CCOCC3)C(=O)CS2(=O)=O)c1` (configuration not stated) has an IC50 of over 10000 nM.

In the case of `O=C(NCCCCc1ccccc1)c1cccc(C2N(c3cccc(F)c3)C(=O)CS2(=O)=O)c1` (configuration not stated), the IC50 is reported as 103 nM.

For `COCCCCNC(=O)c1cccc([C@H]2N(c3ncccc3OC)C(=O)CS2(=O)=O)n1`, the IC50 was 71 nM.

With `O=C(NCCCCc1ccccc1)c1ccc(C2N(c3ccccc3)C(=O)CS2(=O)=O)cc1` (configuration not stated) the IC50 was over 10000 nM.

`COCCCCNC(=O)c1cccc(C2N(c3ccccn3)C(=O)C[S+]2[O-])n1` (configuration not stated) was tested, and the IC50 was over 1000 nM.

With `Cc1cccc(N2C(=O)CS(=O)(=O)C2c2cccc(C(=O)NCCCCc3ccccc3)c2)c1` (configuration not stated) the IC50 was 230 nM.

With `O=C(NCCCCc1ccccc1)c1cccc(C2N(c3ncccc3F)C(=O)CS2(=O)=O)n1` (configuration not stated) the IC50 was 25 nM.

`COCCCCNC(=O)c1cccc(C2N(c3ncccc3OC)C(=O)CS2(=O)=O)c1` (configuration not stated) gave an IC50 of over 1000 nM.

`O=C(NCCCCc1ccccc1)c1cc(-c2ccccc2)cc(C2N(c3ccccc3)C(=O)CS2(=O)=O)c1` (configuration not stated) was tested, and the IC50 was over 10000 nM.

`Cc1ccnc(N2C(=O)CS(=O)(=O)C2c2cccc(C(=O)NCCCCc3ccccc3)n2)c1` (configuration not stated) showed an IC50 of 33 nM.
